{
  "source": "patent EP1621546B1",
  "about": "“Peptide ligands specific to immonoglobulins” (Tecnogen S.p.A., priority 2004, dated 2008)",
  "key": {"[1]": {"test_system": "IgG, IgE, IgM and IgA immunoglobulins", "assay": "Separation and purification of immunoglobulins from raw murine serum by affinity chromatography on the resin-immobilized compound", "assay_type": "binding", "details": "compound immobilized on Ultralink Biosupport Medium", "description": "(§1) Compound IB (5 mg) prepared according to the preceding Example 1 was dissolved in 5.0 ml of 0.2 M NaHCO3, 0.6 M Na citrate, pH 9.0, and incubated with 130 mg (1 mL) of resin Ultralink Biosupport Medium™ (PIERCE, Rockford, IL, USA), a support for affinity chromatography pre-activated with a function of the azalactone type for direct coupling of peptides and proteins. The suspension was stirred for 12 hours at room temperature and the extent of coupling was monitored by taking samples of the reaction mixture at various times and then analysing by RP-HPLC.\n(§2) After 12 hours, approx. 90-95% of the initial peptide had been immobilized covalently on the resin. The derivatized resin was incubated with 0.1 M TRIS, pH 8.5 to block any sites of the resin that are still reactive, and then packed in a glass column 100 x 0.6 mm ID with variable plunger (OMNIFIT™, Cat. No. 006CC-06-10-FF).\nTo evaluate the capability of Compound I(B) immobilized on resin according to Example 2 to separate and purify immunoglobulins, the column was equilibrated with buffer 25 mM Bis-Tris (Bis(2-hydroxyethyl)amino-tris(hydroxymethyl)methane, Sigma-Aldrich™, Cat. No. B7535), pH 6.5, at a flow rate of 1 mL/min, monitoring the eluent at 280 nm. […]"}, "[2]": {"test_system": "immunoglobulins (IgG, IgE, IgM and IgA) present in human serum", "assay": "Separation and purification of immunoglobulins from raw human serum by affinity chromatography on the resin-immobilized compound (gel electrophoresis and Western blotting of fractions)", "assay_type": "binding", "details": "compound immobilized on Ultralink Biosupport Medium", "description": "as §1, §2\nTo evaluate the capability of Compound I(B) immobilized on resin according to Example 2 to separate and purify immunoglobulins, the column was equilibrated with buffer 25 mM Bis-Tris (Bis(2-hydroxyethyl)amino-tris(hydroxymethyl)methane, Sigma-Aldrich™, Cat. No. B7535), pH 6.5, at a flow rate of 1 mL/min, monitoring the eluent at 280 nm.\nRaw human serum (Sigma-Aldrich™, Cat. No. R9133) was filtered, diluted 1:1 (v/v) with the binding buffer, loaded on the column and, after elution of the unbound material, the eluent was changed to acetic acid (AcH, Sigma-Aldrich™, Cat. No. 46928) 0.1 M, pH 3.0, for eluting the adsorbed material.\nThe material eluted from the column was neutralized with TRIS 1 M, pH 9.0 and characterized by analysis by polyacrylamide gel electrophoresis and Western blotting (WB) on nitrocellulose for identifying the immunoglobulins retained."}},
  "data": [
    {"substance": "(NH2-L-Cys-L-Tyr-L-His-L-His)2-L-Lys-L-Gly-OH [Compound I(B)]", "values": [
      {"measurement": "albumin (selectivity of the column)", "setting": "[1]", "result": "recovered in the unretained material"},
      {"measurement": "immunoglobulins retained by the column", "setting": "[1]", "result": "able to retain the IgG, IgE, IgM and IgA immunoglobulins"},
      {"measurement": "retention of the immunoglobulin fraction of the raw serum (electrophoretic analysis)", "setting": "[2]; raw human serum diluted 1:1, binding buffer 25 mM Bis-Tris pH 6.5, elution with acetic acid 0.1 M pH 3.0", "result": "able to retain the immunoglobulin fraction of the raw serum"},
      {"measurement": "classes of immunoglobulins retained (WB analysis of the retained material)", "setting": "[2]; raw human serum, Western blotting on nitrocellulose", "result": "retained all the classes of immunoglobulins (IgG, IgE, IgM and IgA)"},
      {"measurement": "albumin (selectivity of the column)", "setting": "[2]; raw human serum, electrophoretic analysis", "result": "recovered in the unretained material"}
    ]}
  ]
}
